In the assay the target is T1, Human CD73 (amino acid residues 27-549) (Homo sapiens, UniProt P21589).
T1 construct: Human CD73 (amino acid residues 27-549); His tag (N); made in house; host or cells: E. coli
T1 sequence (P21589 27-549): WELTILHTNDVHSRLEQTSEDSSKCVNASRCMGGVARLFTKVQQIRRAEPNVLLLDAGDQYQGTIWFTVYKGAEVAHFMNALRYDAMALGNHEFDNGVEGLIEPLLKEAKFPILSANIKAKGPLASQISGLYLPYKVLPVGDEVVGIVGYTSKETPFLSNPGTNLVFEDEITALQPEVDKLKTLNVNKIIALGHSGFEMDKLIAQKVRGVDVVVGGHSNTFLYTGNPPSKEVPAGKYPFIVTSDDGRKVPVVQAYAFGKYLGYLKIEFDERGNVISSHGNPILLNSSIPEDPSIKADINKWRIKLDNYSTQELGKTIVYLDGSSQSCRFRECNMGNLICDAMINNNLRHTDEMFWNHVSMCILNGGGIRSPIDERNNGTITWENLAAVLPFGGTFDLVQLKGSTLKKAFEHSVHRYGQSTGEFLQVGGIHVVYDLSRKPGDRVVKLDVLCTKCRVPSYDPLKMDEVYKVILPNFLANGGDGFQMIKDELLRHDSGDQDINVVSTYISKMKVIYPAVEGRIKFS
The experiment in a line: CD73 enzymatic assay (luciferase-based indirect assay, CellTiter-Glo). To be noted: 0.4 nM CD73, 150 μM AMP, 1 hour at room temperature. Format: biochemical. As for the experimental part:
CD73 enzymatic activity was measured in a luciferase-based indirect assay using CellTiter-Glo® system from Promega. The luciferase reaction in the presence of ATP is inhibited by AMP, a primary substrate of CD73. Addition of CD73 enzyme to the reaction converts AMP to adenosine, and release the inhibition, producing a luminescent signal. Inhibition of CD73 leads to the decrease of this luminescent signal.
Human CD73 (amino acid residues 27-549) with N-Terminal His tag was purified in E. coli. All the assay components were prepared in 50 mM HEPEs buffer (pH 7.4) with 0.01% Tween® 20. The CD73 enzymatic assay was performed using 0.4 nM CD73 and 150 μM AMP. 9.5 μL of CD73 protein and 9.5 μL of AMP were added to the wells of a 384 well plate containing 1 μL of various concentrations of test compound or DMSO vehicle and incubated for 1 hour at room temperature. 16 wells containing CD73, AMP and 5% DMSO served as high control. 16 wells containing AMP and 5% DMSO served as low control. Enzymatic reaction was stopped and AMP level was measured indirectly by adding 5 μL of CellTiter-Glo® 2.0 reagent and 5 μL of ATP with a final concentration of 1 μM. Following incubation of the plate at room temperature for 30 minutes, luminescent signal was read on a Tecan plate reader. The percentage inhibition at individual concentrations relative to high and low controls was calculated. The data were analyzed by using nonlinear regression to generate IC50 values.
A general note: Cellular ATP, detected with luciferase, serves as a proxy for viable cell number.

This is an account of results in patent publication US12509444B2, “Compounds and methods for CD73 modulation and indications therefor” (Plexxikon Inc., priority 2019, dated 2025).

Molecules are shown by their SMILES.

As a reminder, the IC50 is the midpoint of a concentration-inhibition curve. A lower IC50 goes with inhibition by little substance.

Consider `O=C(Nc1ccc(OC(F)(F)F)cc1)N[C@@H]1CCN(c2cn[nH]c(=O)c2Cl)C1` [P-0041, (R)-1-(1-(5-chloro-6-oxo-1,6-dihydropyridazin-4-yl)pyrrolidin-3-yl)-3-(4-(trifluoromethoxy)phenyl)urea], for which the IC50 was in the range of 0.001 to 10 µM. On to `N#Cc1ccc(NC(=O)N[C@@H]2CCN(c3cn[nH]c(=O)c3Cl)C2)cc1` [P-0042, (R)-1-(1-(5-chloro-6-oxo-1,6-dihydropyridazin-4-yl)pyrrolidin-3-yl)-3-(4-cyanophenyl)urea], for which the half-inhibitory concentration (IC50) fell in the range of 0.001 to 10 µM. `O=C(Nc1ccc(C(F)(F)F)cc1)N[C@@H]1CCN(c2cn[nH]c(=O)c2Cl)C1` [P-0043, (R)-1-(1-(5-chloro-6-oxo-1,6-dihydropyridazin-4-yl)pyrrolidin-3-yl)-3-(4-(trifluoromethyl)phenyl)urea] came in with an IC50 of 0.001 to 10 µM. For the molecule `O=C(Nc1cccc(OC(F)F)c1)N[C@@H]1CCN(c2cn[nH]c(=O)c2Cl)C1` [P-0044, (R)-1-(1-(5-chloro-6-oxo-1,6-dihydropyridazin-4-yl)pyrrolidin-3-yl)-3-(3-(difluoromethoxy)phenyl)urea], the IC50 lay within 0.001 to 10 µM. `CN(C)c1ccc(NC(=O)N[C@@H]2CCN(c3cn[nH]c(=O)c3Cl)C2)cc1` [P-0045, (R)-1-(1-(5-chloro-6-oxo-1,6-dihydropyridazin-4-yl)pyrrolidin-3-yl)-3-(4-(dimethylamino)phenyl)urea]: the IC50 lay within 10 to 100 µM. In the case of `O=C(N[C@@H]1CCN(c2cn[nH]c(=O)c2Cl)C1)OCc1ccccc1` [P-0048, benzyl (R)-(1-(5-chloro-6-oxo-1,6-dihydropyridazin-4-yl)pyrrolidin-3-yl)carbamate], the concentration for half-maximal inhibition (IC50) was in the range of 10 to 100 µM. In turn, `COc1ccc(OC(=O)N[C@@H]2CCN(c3cn[nH]c(=O)c3Cl)C2)cc1` [P-0049, 4-methoxyphenyl (R)-(1-(5-chloro-6-oxo-1,6-dihydropyridazin-4-yl)pyrrolidin-3-yl)carbamate] had an IC50 of 0.001 to 10 µM. For `CC(C)COC(=O)N[C@@H]1CCN(c2cn[nH]c(=O)c2Cl)C1` [P-0050, isobutyl (R)-(1-(5-chloro-6-oxo-1,6-dihydropyridazin-4-yl)pyrrolidin-3-yl)carbamate] the value was 0.001 to 10 µM; for `O=C(NC1CC1)N[C@@H]1CCN(c2cn[nH]c(=O)c2Cl)C1` [P-0053, (R)-1-(1-(5-chloro-6-oxo-1,6-dihydropyridazin-4-yl)pyrrolidin-3-yl)-3-cyclopropylurea], 0.001 to 10 µM. In the case of `O=C(N[C@@H]1CCN(c2cn[nH]c(=O)c2Cl)C1)OC1CCOC1` (stereo partly drawn) [P-0055, tetrahydrofuran-3-yl ((R)-1-(5-chloro-6-oxo-1,6-dihydropyridazin-4-yl)pyrrolidin-3-yl)carbamate], the half-maximal inhibitory concentration (IC50) lay within 0.001 to 10 µM.

As to `C[C@H]1CN(c2cn[nH]c(=O)c2Cl)C[C@@H]1NC(=O)OC(C)(C)C` [P-0060, tert-butyl ((3R,4S)-1-(5-chloro-6-oxo-1,6-dihydropyridazin-4-yl)-4-methylpyrrolidin-3-yl)carbamate], the IC50 fell in the range of 0.001 to 10 µM.

`C[C@H]1CN(c2cn[nH]c(=O)c2Cl)C[C@@H]1NC(=O)NC1CCCC1` [P-0061, 1-((3R,4S)-1-(5-chloro-6-oxo-1,6-dihydropyridazin-4-yl)-4-methylpyrrolidin-3-yl)-3-cyclopentylurea] displayed an IC50 of 0.001 to 10 µM. In turn, `CN(C(=O)OC(C)(C)C)C1CCN(c2cn[nH]c(=O)c2Cl)C1` (stereo not drawn) [P-0066, tert-butyl (1-(5-chloro-6-oxo-1,6-dihydropyridazin-4-yl)pyrrolidin-3-yl)(methyl)carbamate] showed an IC50 of 10 to 100 µM. The same measure for `CN(C(=O)NC1CCCC1)C1CCN(c2cn[nH]c(=O)c2Cl)C1` (stereo not drawn) [P-0067, 1-(1-(5-chloro-6-oxo-1,6-dihydropyridazin-4-yl)pyrrolidin-3-yl)-3-cyclopentyl-1-methylurea]: 10 to 100 µM; for `CN(C(=O)NC1CCCCC1)C1CCN(c2cn[nH]c(=O)c2Cl)C1` (stereo not drawn) [P-0069, 1-(1-(5-chloro-6-oxo-1,6-dihydropyridazin-4-yl)pyrrolidin-3-yl)-3-cyclohexyl-1-methylurea]: 0.001 to 10 µM; for `CC(C)(C)OC(=O)NC1(C(=O)O)CCN(c2cn[nH]c(=O)c2Cl)C1` (stereo not drawn) [P-0070, 3-((tert-butoxycarbonyl)amino)-1-(5-chloro-6-oxo-1,6-dihydropyridazin-4-yl)pyrrolidine-3-carboxylic acid]: 100 to 1000 µM. With `CC(=O)N1CCC(NC(=O)N[C@@H]2CCN(c3cn[nH]c(=O)c3Cl)C2)CC1` [P-0071, (R)-1-(1-acetylpiperidin-4-yl)-3-(1-(5-chloro-6-oxo-1,6-dihydropyridazin-4-yl)pyrrolidin-3-yl)urea], the IC50 was 0.001 to 10 µM. The same measure for `CCS(=O)(=O)N1CCC(NC(=O)N[C@@H]2CCN(c3cn[nH]c(=O)c3Cl)C2)CC1` [P-0072, (R)-1-(1-(5-chloro-6-oxo-1,6-dihydropyridazin-4-yl)pyrrolidin-3-yl)-3-(1-(ethylsulfonyl)piperidin-4-yl)urea]: 0.001 to 10 µM. As for `N#CC1(NC(=O)NC2CCCC2)CCN(c2cn[nH]c(=O)c2Cl)C1` (stereo not drawn) [P-0073, 1-(1-(5-chloro-6-oxo-1,6-dihydropyridazin-4-yl)-3-cyanopyrrolidin-3-yl)-3-cyclopentylurea], the IC50 lay within 10 to 100 µM. Regarding `NC(=O)C1(NC(=O)OC2CCCCC2)CCN(c2cn[nH]c(=O)c2Cl)C1` (stereo not drawn) [P-0075, cyclohexyl (3-carbamoyl-1-(5-chloro-6-oxo-1,6-dihydropyridazin-4-yl)pyrrolidin-3-yl)carbamate], the IC50 was 10 to 100 µM. The same measure for `CN(C(=O)NC1CCN(c2cn[nH]c(=O)c2Cl)C1)C1CCCCC1` (stereo not drawn) [P-0078, 3-(1-(5-chloro-6-oxo-1,6-dihydropyridazin-4-yl)pyrrolidin-3-yl)-1-cyclohexyl-1-methylurea]: 10 to 100 µM; for `CN(C(=O)NC1CCN(c2cn[nH]c(=O)c2Cl)C1)C1CCCC1` (stereo not drawn) [P-0079, 3-(1-(5-chloro-6-oxo-1,6-dihydropyridazin-4-yl)pyrrolidin-3-yl)-1-cyclopentyl-1-methylurea]: 0.001 to 10 µM; for `Cc1n[nH]c(=O)c(Cl)c1N1CC[C@@H](NC(=O)NC2CCCCC2)C1` [P-0080, (R)-1-(1-(5-chloro-3-methyl-6-oxo-1,6-dihydropyridazin-4-yl)pyrrolidin-3-yl)-3-cyclohexylurea]: 10 to 100 µM.

For the molecule `Cc1c(N2CC[C@@H](NC(=O)OC3CCCCC3)C2)cn[nH]c1=O` [P-0081, cyclohexyl (R)-(1-(5-methyl-6-oxo-1,6-dihydropyridazin-4-yl)pyrrolidin-3-yl)carbamate], the IC50 was in the range of 0.001 to 10 µM.

The molecule `Cc1n[nH]c(=O)c(Cl)c1N1CC[C@@H](NC(=O)OC2CCCC2)C1` [P-0082, cyclopentyl (R)-(1-(5-chloro-3-methyl-6-oxo-1,6-dihydropyridazin-4-yl)pyrrolidin-3-yl)carbamate] showed an IC50 of 10 to 100 µM. In turn, `O=C(NCC1CC1)N[C@@H]1CCN(c2cn[nH]c(=O)c2Cl)C1` [P-0083, (R)-1-(1-(5-chloro-6-oxo-1,6-dihydropyridazin-4-yl)pyrrolidin-3-yl)-3-(cyclopropylmethyl)urea] registered an IC50 of 10 to 100 µM. For `O=C(NC1CC1c1ccccc1)N[C@@H]1CCN(c2cn[nH]c(=O)c2Cl)C1` (stereo partly drawn) [P-0084, 1-((R)-1-(5-chloro-6-oxo-1,6-dihydropyridazin-4-yl)pyrrolidin-3-yl)-3-(2-phenylcyclopropyl)urea], the IC50 was in the range of 0.001 to 10 µM.
